# Test results published in patent US20100267629A1, “Enterostatin as Therapeutic Agent for Hypoglycemia” (Board of Supervisors of Louisiana State University and …, priority 2006, published 2010).
# Like-named read-outs stand apart in the source and are kept apart here.
# Assays:
# [1] = system: PKARIIβ; assay: PKARIIβ Western blot in HepG2 cells, 60 min incubation; format: cell-based, human; conditions: HepG2, one hour incubation
# Protocol: In a second experiment, human liver cells (HepG2 cell line, American Type Culture Collection, Manassas, Va.) were grown and maintained in Dulbecco's modified eagle's medium (Gibco, Carlsbad, Calif.) containing 10% fetal bovine serum, penicillin (100 I.U./ml), and streptomycin (100 μg/ml). The cells were then incubated for 60 min with 5 mM glucose and various concentrations of enterostatin (0.001, 0.01, 0.03, 0.1, 1.0 μM). After incubation, the cells were lysed and the cytosolic proteins subjected to Western blot analysis for pAMPK and PKARIIβ.
# [2] = target: kappa-opioid receptors (Homo sapiens, UniProt P41145); conditions: cited from earlier work
# [3] = target: T1, Neuropeptide Y1 receptors (Homo sapiens, UniProt P25929); conditions: cited from earlier work
# T1 sequence (P25929 1-384): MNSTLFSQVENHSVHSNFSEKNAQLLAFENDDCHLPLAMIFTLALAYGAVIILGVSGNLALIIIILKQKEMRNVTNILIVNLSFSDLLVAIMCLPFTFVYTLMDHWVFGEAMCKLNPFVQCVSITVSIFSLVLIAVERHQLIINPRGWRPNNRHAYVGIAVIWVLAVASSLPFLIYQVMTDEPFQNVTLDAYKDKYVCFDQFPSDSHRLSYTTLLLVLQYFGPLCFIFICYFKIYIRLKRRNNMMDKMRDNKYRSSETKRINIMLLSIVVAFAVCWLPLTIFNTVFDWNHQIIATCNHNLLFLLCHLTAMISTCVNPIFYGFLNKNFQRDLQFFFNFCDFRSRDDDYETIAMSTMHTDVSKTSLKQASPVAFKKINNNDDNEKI
# [4] = target: T2, beta subunit of ATP synthase (Homo sapiens, UniProt P06576); conditions: receptor protein on liver plasma membranes; cited from earlier work
# T2 construct: from tissue; host or cells: liver plasma membranes
# [5] = system: humans; conditions: cited from earlier work
# [6] = system: rats; conditions: cited from earlier work; for Duration of action on feeding: single injection
# [7] = target: T3, cholecystokinin A receptors (Homo sapiens, UniProt P32238); conditions: cited from earlier work
# T3 sequence (P32238 1-428): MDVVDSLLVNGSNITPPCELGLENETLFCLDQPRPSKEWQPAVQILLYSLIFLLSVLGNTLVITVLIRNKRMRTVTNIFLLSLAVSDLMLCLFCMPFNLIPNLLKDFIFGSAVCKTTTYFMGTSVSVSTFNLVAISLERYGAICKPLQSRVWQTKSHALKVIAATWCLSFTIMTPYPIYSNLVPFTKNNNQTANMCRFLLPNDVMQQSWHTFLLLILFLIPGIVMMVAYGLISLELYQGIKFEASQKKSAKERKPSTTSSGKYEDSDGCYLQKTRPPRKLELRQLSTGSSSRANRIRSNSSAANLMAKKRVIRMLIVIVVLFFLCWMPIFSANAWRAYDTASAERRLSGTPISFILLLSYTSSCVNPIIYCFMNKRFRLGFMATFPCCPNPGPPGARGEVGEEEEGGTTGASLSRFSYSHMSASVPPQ
# [8] = system: galanin receptors; conditions: cited from earlier work
# [9] = system: C57B1/6 male mice; assay: Fasting blood glucose after enterostatin injection; format: in vivo, mouse
# Protocol: Animals: C57B1/6 male mice were purchased from The Jackson Laboratory (Bar Harbor, Me.) at 6 weeks of age. The mice were initially housed in groups of three in acrylic cages in a room with a 12-hour light/dark cycle and with controlled temperature (22 to 23° C.) and with free access to water. The mice were fed a high fat diet (4.78 kcal/g, 56% energy as fat; Research Diets Inc, Brunswick, N.J.). The composition of the diet has been previously described (15). Body weights were measured three time per week. At 8 weeks of age, the mice were switched to single housing.
# Peptide Injections: Enterostatin was dissolved in 0.1 ml saline (0.9% NaCl w/v), and given as a single dose of either 5 μg or 25 μg/mouse. Either enterostatin or saline (control) was injected intraperitoneally. In the experiments involving insulin, insulin (0.75 mU/g body weight) or saline (0.1 ml/10 g body weight; control) was injected intraperitoneally.
# Enterostatin Effect on Fasting Blood Glucose. To directly test the effect of enterostatin on blood glucose, mice were fasted for 18 hours, and enterostatin (25 μg/mouse) or 0.1 ml saline vehicle was injected intraperitoneally at zero time. Blood samples were taken from the tail vein at 15, 30, 45 and 60 min after enterostatin injection. The blood samples were assayed for glucose using a glucometer.
# [10] = system: AMPK; assay: In vivo AMPK activity, Western blot of liver and hypothalamus; design: species or system mouse
# Protocol: A separate set of mice (n=6/group) were fasted overnight (18 hours) before injection with either saline vehicle (0.1 ml) or enterostatin (5 or 25 ug/mouse) intraperitoneally. The mice were sacrificed by cervical dislocation either at 30 min (certain enterostatin-treated groups) or 60 min (both certain enterostatin- and vehicle-treated groups) after the injection. The tissues of liver and hypothalamus were rapidly dissected and frozen in liquid nitrogen. The tissues were stored at −80 C before processing for AMPK activity. For AMPK activity, the tissues were unfrozen, the cells lysed, and the cytosolic proteins subjected to Western blot analysis for AMPK and pAMPK activity.
# [11] = target: brain membrane preparation; conditions: low affinity binding; cited from earlier work
# [12] = system: baboons; conditions: single-choice diet; cited from earlier work
# [13] = system: islet cells; conditions: cited from earlier work
# [14] = peripheral and central administration; cited from earlier work
# [15] = three-choice macronutrient diet
# kappa-opioid receptors, sequence (P41145 whole entry): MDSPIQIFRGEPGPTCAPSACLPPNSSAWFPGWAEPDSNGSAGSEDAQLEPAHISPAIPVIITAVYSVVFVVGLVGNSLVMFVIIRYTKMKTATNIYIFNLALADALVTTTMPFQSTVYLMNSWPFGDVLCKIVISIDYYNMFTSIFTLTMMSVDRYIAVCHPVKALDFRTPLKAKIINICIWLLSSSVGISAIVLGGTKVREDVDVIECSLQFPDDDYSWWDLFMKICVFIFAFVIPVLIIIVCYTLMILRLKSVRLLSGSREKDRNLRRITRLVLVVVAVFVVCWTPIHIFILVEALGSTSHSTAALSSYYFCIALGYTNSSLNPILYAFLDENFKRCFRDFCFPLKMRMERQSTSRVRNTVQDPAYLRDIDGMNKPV
# T2 sequence (P06576 48-529): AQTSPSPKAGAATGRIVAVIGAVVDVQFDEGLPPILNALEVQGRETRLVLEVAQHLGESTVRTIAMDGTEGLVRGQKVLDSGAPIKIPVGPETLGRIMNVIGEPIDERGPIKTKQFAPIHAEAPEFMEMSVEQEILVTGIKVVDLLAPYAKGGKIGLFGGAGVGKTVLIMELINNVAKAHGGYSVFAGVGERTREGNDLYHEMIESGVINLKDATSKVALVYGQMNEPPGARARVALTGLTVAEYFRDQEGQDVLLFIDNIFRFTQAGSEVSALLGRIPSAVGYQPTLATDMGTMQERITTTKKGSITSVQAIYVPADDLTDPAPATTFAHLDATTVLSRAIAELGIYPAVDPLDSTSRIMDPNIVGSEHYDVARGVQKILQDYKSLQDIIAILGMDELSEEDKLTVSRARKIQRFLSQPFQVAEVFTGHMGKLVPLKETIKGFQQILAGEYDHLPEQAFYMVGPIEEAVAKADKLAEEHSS
# T2 sequence (P25705 44-553 partner): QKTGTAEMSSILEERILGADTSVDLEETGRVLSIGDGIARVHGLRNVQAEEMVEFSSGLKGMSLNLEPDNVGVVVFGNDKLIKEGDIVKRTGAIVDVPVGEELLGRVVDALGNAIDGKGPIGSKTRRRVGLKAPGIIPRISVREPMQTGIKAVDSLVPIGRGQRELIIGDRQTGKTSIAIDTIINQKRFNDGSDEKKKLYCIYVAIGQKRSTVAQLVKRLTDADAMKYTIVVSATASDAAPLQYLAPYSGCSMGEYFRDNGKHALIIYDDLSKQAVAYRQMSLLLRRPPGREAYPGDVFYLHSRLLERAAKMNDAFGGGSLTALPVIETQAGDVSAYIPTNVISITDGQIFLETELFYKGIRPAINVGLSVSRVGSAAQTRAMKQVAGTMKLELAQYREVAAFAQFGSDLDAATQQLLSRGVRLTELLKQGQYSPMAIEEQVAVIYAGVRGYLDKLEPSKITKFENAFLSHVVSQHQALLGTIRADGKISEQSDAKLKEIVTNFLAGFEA
# T2 sequence (P36542 26-298 partner): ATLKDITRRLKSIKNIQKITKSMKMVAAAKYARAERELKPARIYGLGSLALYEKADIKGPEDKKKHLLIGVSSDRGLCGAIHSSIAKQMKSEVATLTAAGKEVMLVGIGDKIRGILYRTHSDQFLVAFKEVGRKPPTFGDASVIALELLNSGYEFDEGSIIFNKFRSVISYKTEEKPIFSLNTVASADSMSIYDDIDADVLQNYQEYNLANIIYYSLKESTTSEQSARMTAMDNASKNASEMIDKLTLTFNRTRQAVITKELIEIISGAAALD
# T2 sequence (P30049 23-168 partner): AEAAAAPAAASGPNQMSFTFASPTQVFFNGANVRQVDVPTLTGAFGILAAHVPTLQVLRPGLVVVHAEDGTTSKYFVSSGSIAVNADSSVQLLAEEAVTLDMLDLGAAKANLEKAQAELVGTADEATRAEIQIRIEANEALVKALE
# T2 sequence (P56381 2-51 partner limits assumed): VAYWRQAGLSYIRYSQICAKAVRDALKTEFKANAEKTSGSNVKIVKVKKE
substance,measurement,setting,value
Enterostatin: aminoterminal pentapeptide of procolipase released when procolipase is converted into colipase (VPDPR; printed: Val-Pro-Asp-Pro-Arg),Dose of peak increase in PKARIIβ,[1],10 nM
same,PKARIIβ,[1]; 5 mM glucose,increase in PKARIIβ
same,Binding,[2],not to bind
same,Binding,[3],not to bind
same,Kd,[4],2.5 nM
same,Food intake,[5],not been found to reduce food intake
same,Subjective feeling of hunger,[5]; intravenous injection,reduce the subjective feeling of hunger
same,Duration of action on feeding,[6]; rats adapted to ad-libitum feeding,up to 24 hours
same,Duration of action on feeding,[6]; rats adapted to six-hour feeding schedule,lasting up to six hours
same,Carbohydrate or protein intake,[6]; [15],no effect
same,Intake of the fat macronutrient,[6]; [15],reduced intake of the fat macronutrient
same,Intake of HF and LF diet,[6]; two-choice high-fat / low-fat diet,reduced only intake of the HF diet
same,Binding,[7],not to bind
same,Binding,[8],not to bind
same,Blood glucose levels compared to saline control,"[9]; 25 μg/mouse ip, 18 h fasted",rapid increase in blood glucose levels
same,Increase in blood glucose versus saline vehicle,"[9]; 25 μg/mouse ip, at 15 and 30 min",significantly greater
same,Duration of raised glucose levels after injection,[9]; injection into mice,remained high for up to an hour after injection
same,Time to increase in blood glucose levels after injection,[9]; injection into mice,≤ 15 min
same,Hypothalamic pAMPK,[10]; 5 or 25 μg/mouse ip,unaltered
same,Total AMPK,[10]; 5 or 25 μg/mouse ip,unaffected
same,Liver pAMPK levels,"[10]; 30 and 60 min after ip injection, even at lower dose (5 μg/mouse)",reduced
same,Kd,[11],230 nM
same,Food intake,[12],reduce food intake
same,Insulin secretion stimulated by glybenclamide,[13]; glybenclamide 5.0 and 10 μM,inhibited insulin secretion
same,Intracellular cyclic AMP content,"[13]; increase produced by U50,488 100 nM",reduced the increase in intracellular cyclic AMP content
same,Insulin secretion,"[13]; islets, 16.7 mM glucose, 10^−9 to 10^−5 M, dose-dependent",inhibited insulin secretion
same,Doses inhibiting insulin secretion,[13]; isolated pancreatic islets,10^−10 to 10^−6 M
same,"Insulin secretion stimulated by U50,488","[13]; kappa-opioid agonist U50,488 100 nM",inhibited insulin secretion
same,Insulin secretion stimulated by TPA,[13]; phorbol 12-myristate-13-acetate 50 and 100 nM,inhibited insulin secretion
same,Insulin levels,[14],reduction in insulin levels
same,Plasma glucose,[14],without any changes in plasma glucose
